Laboratory results as given in paper PMC8125234, “Cardiolipin Stabilizes and Increases Catalytic Efficiency of Carnitine Palmitoyltransferase II and Its Variants S113L, P50H, and Y479F” (International Journal of Molecular Sciences, 2021).
Positions count from the first letter of the chain named.

How the values were obtained:
Assay in all cases: Influence of CL on the enzyme activity
Format in all cases: biochemical
Conditions in all cases: for Maximal Enzymatic Activity: w/o CL = 100
CPT II variant S113L = target: T1, CPT II variant S113L (Homo sapiens, UniProt P23786, S113L)
T1 construct: made in house; host or cells: Escherichia coli BL21Gold DE
T1 sequence (P23786 26-658 S113L): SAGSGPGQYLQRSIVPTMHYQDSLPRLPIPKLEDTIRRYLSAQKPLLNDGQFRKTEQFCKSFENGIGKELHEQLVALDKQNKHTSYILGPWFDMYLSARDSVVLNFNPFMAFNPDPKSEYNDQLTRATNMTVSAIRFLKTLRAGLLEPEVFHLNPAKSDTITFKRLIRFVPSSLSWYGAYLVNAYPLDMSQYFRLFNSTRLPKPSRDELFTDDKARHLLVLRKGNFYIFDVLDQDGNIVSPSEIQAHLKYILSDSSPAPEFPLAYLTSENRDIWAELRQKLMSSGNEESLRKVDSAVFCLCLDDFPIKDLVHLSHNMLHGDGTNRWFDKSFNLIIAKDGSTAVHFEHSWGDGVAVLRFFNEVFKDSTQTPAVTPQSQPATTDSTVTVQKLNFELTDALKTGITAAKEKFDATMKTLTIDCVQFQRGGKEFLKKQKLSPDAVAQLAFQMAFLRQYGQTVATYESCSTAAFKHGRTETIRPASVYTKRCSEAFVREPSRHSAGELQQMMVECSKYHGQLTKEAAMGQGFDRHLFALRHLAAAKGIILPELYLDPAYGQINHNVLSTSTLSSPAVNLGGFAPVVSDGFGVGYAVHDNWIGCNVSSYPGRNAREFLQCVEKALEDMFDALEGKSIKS
Protocol: (§1) Then, the effect of CL, as a potential stabilizing agent, was investigated in the activity assay. Therefore, 0.1 mg/mL recombinant enzyme was incubated with various concentrations of CL (0.125, 0.25 or 0.5 mM) or buffer at 30 and 42 °C, respectively.
(§2) Before activity measurements, the storage buffer of the enzymes was replaced with assay buffer (50 mM KH2PO4, 120 mM KCl, 1 mM EDTA-Na4) using vivaspin turbo 4 tubes (Satorius Stedim biotech GmbH, Göttingen, Germany) at 4 °C. The pH of assay buffer was adjusted with KOH to 7.4. The storage buffer was diluted at least 1:500 in assay buffer. In addition, before each experimental set up, the protein samples were centrifuged at 16,000× g for 5 min at 4 °C to remove any micro-aggregates. After that, the protein concentration was determined using bicinchoninic acid (BCA) protein assay kit (Thermo Fisher Scientific GmbH, Berlin, Germany). The enzyme activity of recombinant CPT II was performed following Rufer et al. with modifications described elsewhere. […] After pre-conditioning the mixture to 25 °C for 2 min, the reaction was started by adding 15 nM of recombinant enzyme. The reverse reaction of CPT II was detected with the enzyme activity assay. CPT II catalyzed the transfer of fatty acid residue from Pal-CoA to L-carnitine with release of CoA and Pal-carnitine. The released CoA was then detected by the reaction of the free thiol group with DTNB, forming 5-mercapto-(2-nitrobenzoic acid). This compound has a molar extinction coefficient of 13,600 M^−1 cm^−1 at a wavelength of 410 nm, and its formation was followed spectroscopically. […] The slope of the progress curve was used to determine the reaction velocity.
(§3) The purified enzymes were incubated at different temperatures (30, 37, 40 and 42 °C) using a protein concentration of 1 mg/mL during the incubation periods to investigated the half-lives of WT and variants. 0.1 mg/mL enzyme was incubated with or without CL (0.125, 0.25 and 0.5 mM) in the assay buffer. The enzyme activities were determined by adding 15 nM of pre-incubated enzyme according to Section 4.3 after various incubation times up to 60 min at an assay temperature of 25 °C. Experiments were done at least three times independently as double determination.

CPT II variant P50H = target: T2, CPT II variant P50H (Homo sapiens, UniProt P23786, P50H)
T2 construct: made in house; host or cells: Escherichia coli BL21Gold DE
T2 sequence (P23786 26-658 P50H): T1 sequence (P23786 26-658 S113L) with P25H, L88S
Protocol: as §1, §2, §3

CPT II WT = target: T3, CPT II WT (Homo sapiens, UniProt P23786)
T3 construct: made in house; host or cells: Escherichia coli BL21Gold DE
T3 sequence (P23786 26-658): T1 sequence (P23786 26-658 S113L) with L88S
Protocol: as §1, §2, §3

## Cardiolipin [CL]
CPT II variant S113L
  Increase of the enzymatic activity by CL: marginal effect
CPT II variant S113L; 0.25 mM CL
  Maximal Enzymatic Activity: 114.5 ± 8.3%
CPT II variant S113L; 0.5 mM CL
  Maximal Enzymatic Activity: 98.7 ± 5.1%
CPT II variant S113L; before incubation periods
  Enzymatic activity in the presence of CL: 115%
CPT II variant P50H
  Increase of the enzymatic activity by CL: marginal effect
CPT II variant P50H; 0.25 mM CL
  Maximal Enzymatic Activity: 113.0 ± 7.6%
CPT II variant P50H; 0.5 mM CL
  Maximal Enzymatic Activity: 94.5 ± 6.4%
CPT II variant P50H; before incubation periods
  Enzymatic activity in the presence of CL: 113%
CPT II variant P50H; incubation at 42 °C
  Effect of CL on maintenance of enzyme activity: almost no effect
CPT II WT
  Increase of the enzymatic activity by CL: 1.5 fold
CPT II WT; 0.25 mM CL
  Maximal Enzymatic Activity: 152.3 ± 5.5%
CPT II WT; 0.5 mM CL
  Maximal Enzymatic Activity: 135.9 ± 4.7%
CPT II WT; 0.25 and 0.5 mM CL, before incubation periods
  Enzymatic activity in the presence of CL: up to 150%
